The source of these data is patent US11180474B2 (BRISTOL-MYERS SQUIBB COMPANY, priority 2016, dated 2021).

Each structure is given as a SMILES string. pIC50: −log10 of the molar value.

For orientation: pIC50 means −log10 of the IC50, conventionally taken in molar units. Low values mean a high IC50, high ones a low IC50.

The target of one assay is T1, human TLR8 (Homo sapiens, UniProt Q9NR97).
T1 construct: host or cells: HEK-Blue cells
T1 sequence (Q9NR97 27-1041): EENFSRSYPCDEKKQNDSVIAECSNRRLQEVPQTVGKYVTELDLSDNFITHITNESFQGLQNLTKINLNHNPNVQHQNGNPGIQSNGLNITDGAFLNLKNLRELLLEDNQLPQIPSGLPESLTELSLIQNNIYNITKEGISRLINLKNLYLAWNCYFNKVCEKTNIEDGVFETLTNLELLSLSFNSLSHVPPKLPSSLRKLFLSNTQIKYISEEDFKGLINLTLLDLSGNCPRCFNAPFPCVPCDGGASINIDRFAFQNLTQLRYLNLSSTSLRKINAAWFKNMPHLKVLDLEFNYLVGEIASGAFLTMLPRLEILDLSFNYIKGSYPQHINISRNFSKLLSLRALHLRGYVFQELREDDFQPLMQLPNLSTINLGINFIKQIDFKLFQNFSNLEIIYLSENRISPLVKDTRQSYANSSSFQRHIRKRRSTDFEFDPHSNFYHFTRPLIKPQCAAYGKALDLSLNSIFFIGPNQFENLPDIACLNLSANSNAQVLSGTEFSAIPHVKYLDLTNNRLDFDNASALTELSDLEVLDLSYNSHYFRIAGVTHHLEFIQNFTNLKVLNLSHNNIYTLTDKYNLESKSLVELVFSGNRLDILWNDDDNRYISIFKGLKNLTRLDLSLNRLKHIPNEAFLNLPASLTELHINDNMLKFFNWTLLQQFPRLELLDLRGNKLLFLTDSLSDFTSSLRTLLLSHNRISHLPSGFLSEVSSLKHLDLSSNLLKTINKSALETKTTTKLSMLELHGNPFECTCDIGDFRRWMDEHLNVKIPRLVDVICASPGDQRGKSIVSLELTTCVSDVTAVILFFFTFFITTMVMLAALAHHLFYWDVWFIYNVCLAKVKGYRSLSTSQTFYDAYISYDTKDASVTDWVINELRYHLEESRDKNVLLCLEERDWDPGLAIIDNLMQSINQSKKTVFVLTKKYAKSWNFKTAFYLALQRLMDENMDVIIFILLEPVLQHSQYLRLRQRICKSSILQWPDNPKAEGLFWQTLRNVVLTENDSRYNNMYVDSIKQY
As to the kind of experiment: TLR8 inhibition reporter assay (HEK-Blue cells, SEAP reporter, R848 stimulation). In kind it is cell-based. The settings on record: HEK-Blue cells overexpressing human TLR8, R848 15.9 μM. Here is the method:
TLR7/8/9 Inhibition Reporter Assays
Briefly, cells are seeded into Greiner 384 well plates (15000 cells per well for TLR7, 20,000 for TLR8 and 25,000 for TLR9) and then treated with test compounds in DMSO to yield a final dose response concentration range of 0.05 nM-50 μM. […] After a 22 hour incubation at 37° C., 5% CO2, SEAP levels are determined with the addition of HEK-Blue™ Detection reagent (Invivogen), a cell culture medium that allows for detection of SEAP, according to manufacturer's specifications. The percent inhibition is determined as the % reduction in the HEK-Blue signal present in wells treated with agonist plus DMSO alone compared to wells treated with a known inhibitor.
For orientation: A reporter such as luciferase makes a cellular process visible.

For another assay, the target named is T2, human TLR9 (Homo sapiens, UniProt Q9NR96).
T2 construct: host or cells: HEK-Blue cells
T2 sequence (Q9NR96 26-1032): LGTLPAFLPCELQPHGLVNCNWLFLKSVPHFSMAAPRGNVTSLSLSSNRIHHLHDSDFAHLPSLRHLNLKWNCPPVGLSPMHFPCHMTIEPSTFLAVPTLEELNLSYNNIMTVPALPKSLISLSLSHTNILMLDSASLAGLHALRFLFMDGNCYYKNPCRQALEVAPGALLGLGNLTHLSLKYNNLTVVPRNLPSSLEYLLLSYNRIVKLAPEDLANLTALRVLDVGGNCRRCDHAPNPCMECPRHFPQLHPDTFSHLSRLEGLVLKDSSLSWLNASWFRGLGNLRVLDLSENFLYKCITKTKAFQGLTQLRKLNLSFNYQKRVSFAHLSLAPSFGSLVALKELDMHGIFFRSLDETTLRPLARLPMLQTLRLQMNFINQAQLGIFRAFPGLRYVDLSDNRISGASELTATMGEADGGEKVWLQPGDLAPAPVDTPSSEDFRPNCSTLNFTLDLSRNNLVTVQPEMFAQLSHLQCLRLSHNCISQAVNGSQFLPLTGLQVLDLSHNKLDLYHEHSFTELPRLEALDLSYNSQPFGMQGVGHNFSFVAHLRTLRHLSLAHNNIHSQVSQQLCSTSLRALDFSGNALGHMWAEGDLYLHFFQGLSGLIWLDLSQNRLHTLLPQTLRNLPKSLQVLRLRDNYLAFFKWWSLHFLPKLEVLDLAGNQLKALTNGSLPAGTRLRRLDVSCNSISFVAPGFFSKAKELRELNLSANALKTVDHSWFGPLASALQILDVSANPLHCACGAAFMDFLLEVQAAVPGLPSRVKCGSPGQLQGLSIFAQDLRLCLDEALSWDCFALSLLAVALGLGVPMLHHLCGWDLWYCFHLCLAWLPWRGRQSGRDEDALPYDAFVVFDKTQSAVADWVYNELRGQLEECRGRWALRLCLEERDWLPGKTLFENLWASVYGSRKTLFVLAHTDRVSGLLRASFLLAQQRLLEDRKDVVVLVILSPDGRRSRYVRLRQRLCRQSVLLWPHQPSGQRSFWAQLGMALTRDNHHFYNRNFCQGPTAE
As to the kind of experiment: TLR9 inhibition reporter assay (HEK-Blue cells, SEAP reporter, ODN2006 stimulation). The assay is classed as cell-based. The settings on record: HEK-Blue cells overexpressing human TLR9, ODN2006 5 nM. Summed up:
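Compound treatment: 30 min, RT, 0.05 nM–50 μM final. Agonist: TLR7 gardiquimod 7.5 μM; TLR8 R848 15.9 μM; TLR9 ODN2006 5 nM. Incubation 22 h, 37 °C, 5% CO2. Readout SEAP, HEK-Blue Detection.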

Take `CCc1c(-c2ccc(OC)c(OC)c2)[nH]c2ccc(C3CCN(C(=O)CN4CCCC(C(=O)O)C4)CC3)cc12` (racemic) [Example 176, 1-(2-(4-(2-(3,4-dimethoxyphenyl)-3-ethyl-1H-indol-5-yl)piperidin-1-yl)-2-oxoethyl)piperidine-3-carboxylic acid]: the figures for the pIC50 against human TLR8 and against human TLR9 were 5.18 and at most 4.30, respectively.
In the case of `CCc1c(-c2ccc(OC)c(OC)c2)[nH]c2ccc(C3CCN(C(=O)CN4CCCC(C(=O)N(CC)CC)C4)CC3)cc12` (single isomer, unassigned) [Example 178, 1-(2-(4-(2-(3,4-dimethoxyphenyl)-3-ethyl-1H-indol-5-yl)piperidin-1-yl)-2-oxoethyl)-N,N-diethylpiperidine-3-carboxamide], the values for the negative logarithm of the IC50 (pIC50) at human TLR8 and at human TLR9 were 6.88 and 5.28, respectively.
For the compound `CCc1c(-c2ccc(OC)c(OC)c2)[nH]c2ccc(C3CCN(C(=O)CN4CCCC(C(=O)N(CC)CC)C4)CC3)cc12` (single isomer, unassigned) [Example 179, 1-(2-(4-(2-(3,4-dimethoxyphenyl)-3-ethyl-1H-indol-5-yl)piperidin-1-yl)-2-oxoethyl)-N,N-diethylpiperidine-3-carboxamide], the results for the negative-log IC50 (pIC50) against human TLR8 and against human TLR9 were 7.17 and 6.13, respectively.
For the compound `COc1ccc(-c2[nH]c3ccc(C4CCN(C5CCN(CC(C)C)CC5)CC4)cc3c2C)cc1OC` [Example 6, 2-(3,4-dimethoxyphenyl)-5-(1′-isobutyl-[1,4′-bipiperidin]-4-yl)-3-methyl-1H-indole], the pIC50 is 6.61 at human TLR8 and 6.66 on human TLR9.
Consider `COc1ccc(-c2[nH]c3ccc(C4CCN(C5CCN(Cc6ccccc6)CC5)CC4)cc3c2C)cc1OC` [Example 9, 5-(1′-benzyl-[1,4′-bipiperidin]-4-yl)-2-(3,4-dimethoxyphenyl)-3-methyl-1H-indole], for which the pIC50 was 6.34 on human TLR8 and 6.44 against human TLR9.
With `COc1ccc(-c2[nH]c3ccc(C4CCN(C5CCN(C(C)C)CC5)CC4)cc3c2C)cc1OC` [Example 10, 2-(3,4-dimethoxyphenyl)-5-(1′-isopropyl-[1,4′-bipiperidin]-4-yl)-3-methyl-1H-indole], the pIC50 is 6.70 against human TLR8 and 6.69 on human TLR9.
For `CNCCN1CCC(c2ccc3c(c2)c(C)c(-c2ccc(OC)c(OC)c2)n3C)CC1` [Example 114, 2-(4-(2-(3,4-dimethoxyphenyl)-1,3-dimethyl-1H-indol-5-yl)piperidin-1-yl)-N-methylethan-1-amine], the pIC50 is 6.02 against human TLR8 and 6.13 on human TLR9.
For the compound `COc1ccc(-c2[nH]c3cc(C)c(C4CCN(C5CCN(C(C)C)CC5)CC4)cc3c2C)cc1OC` [Example 115, 2-(3,4-dimethoxyphenyl)-5-(1′-isopropyl-[1,4′-bipiperidin]-4-yl)-3,6-dimethyl-1H-indole-di-trifluoroacetic acid], the pIC50 was 5.65 against human TLR8 and 7.11 against human TLR9.
For the compound `CNCCN1CCC(c2ccc3[nH]c(-c4ccc(OC)c(OC)c4)c(CC(C)C)c3c2)CC1` [Example 116, trifluoroacetic acid], the pIC50 at human TLR8 is 7.02; at human TLR9 it was 6.08.
`COc1ccc(-c2[nH]c3ccc(C4CCN(C5CCN(CC(C)C)CC5)CC4)cc3c2Cl)cc1OC` [Example 120, 3-chloro-2-(3,4-dimethoxyphenyl)-5-(1′-isobutyl-[1,4′-bipiperidin]-4-yl)-1H-indole di-trifluoroacetic acid]: the pIC50 is 5.90 on human TLR8 and 6.80 at human TLR9.
The like results for `CCCc1c(-c2ccc(OC)c(OC)c2)[nH]c2ccc(C3CCN(C4CCN(CC(C)C)CC4)CC3)cc12` [Example 121, 2-(3,4-dimethoxyphenyl)-5-(1′-isobutyl-[1,4′-bipiperidin]-4-yl)-3-propyl-1H-indole-di-trifluoroacetic acid] were, in that order, 7.19 and 6.42.
`CCc1c(-c2ccc(OC)c(OC)c2)[nH]c2ccc(C3CCNCC3)cc12` [Example 122, 2-(3,4-dimethoxyphenyl)-3-ethyl-5-(piperidin-4-yl)-1H-indole]: the values for the pIC50 at human TLR8 and against human TLR9 were 7.59 and 5.85, respectively.
`CCc1c(-c2ccc(OC)c(OC)c2)[nH]c2ccc(C3CCN(C4CCN(CC(C)C)CC4)CC3)cc12` [Example 123, 2-(3,4-dimethoxyphenyl)-3-ethyl-5-(1′-isobutyl-[1,4′-bipiperidin]-4-yl)-1H-indole-di-trifluoroacetic acid]: the pIC50 against human TLR8 is 6.82; against human TLR9, 6.77.
As for `CCc1c(-c2ccc(OC)c(OC)c2)[nH]c2ccc(C3CCN(C4CCN(Cc5cnc(C)o5)CC4)CC3)cc12` [Example 124, 5-((4-(2-(3,4-dimethoxyphenyl)-3-ethyl-1H-indol-5-yl)-[1,4′-bipiperidin]-1′-yl)methyl)-2-methyloxazole], the pIC50 against human TLR8 was 6.61; at human TLR9, 5.89.
On to `CCc1c(-c2ccc(OC)c(OC)c2)[nH]c2ccc(C3CCN(C4CCN(Cc5c[nH]cn5)CC4)CC3)cc12` [Example 125, 5-(1′-((1H-imidazol-4-yl)methyl)-[1,4′-bipiperidin]-4-yl)-2-(3,4-dimethoxyphenyl)-3-ethyl-1H-indole], for which the pIC50 at human TLR8 was 6.82; against human TLR9 it was 6.39.
For `CCc1c(-c2ccc(OC)c(OC)c2)[nH]c2ccc(C3CCN(C4CCN(Cc5coc(C)n5)CC4)CC3)cc12` [Example 126, 4-((4-(2-(3,4-dimethoxyphenyl)-3-ethyl-1H-indol-5-yl)-[1,4′-bipiperidin]-1′-yl)methyl)-2-methyloxazole], the pIC50 against human TLR8 is 6.94; on human TLR9, 6.32.
For `CCOC(=O)c1c(C)[nH]c(CN2CCC(N3CCC(c4ccc5[nH]c(-c6ccc(OC)c(OC)c6)c(CC)c5c4)CC3)CC2)c1C` [Example 127, ethyl 5-((4-(2-(3,4-dimethoxyphenyl)-3-ethyl-1H-indol-5-yl)-[1,4′-bipiperidin]-1′-yl)methyl)-2,4-dimethyl-1H-pyrrole-3-carboxylate], the pIC50 against human TLR8 is 6.46; against human TLR9, 6.57.
Regarding `CCc1c(-c2ccc(OC)c(OC)c2)[nH]c2ccc(C3CCN(C4CCN(Cc5cc6ccccc6[nH]5)CC4)CC3)cc12` [Example 128, 5-(1′-((1H-indol-2-yl)methyl)-[1,4′-bipiperidin]-4-yl)-2-(3,4-dimethoxyphenyl)-3-ethyl-1H-indole], the pIC50 is 6.20 against human TLR8 and 6.02 against human TLR9.
